# Laboratory results as given in ChEMBL document CHEMBL5365473, “Novel Sulfonylurea-Based NLRP3 Inflammasome Inhibitor for Efficient Treatment of Nonalcoholic Steatohepatitis, Endotoxic Shock, and Colitis” (J Med Chem, 2023).
# Activity calls are given as the source filed them. No cut-off for these calls is given here.
# What was measured:
# [1] = tested on: Mus musculus; assay: Antiinflammatory activity against MCD diet-induced NASH C57BL/6 mouse model assessed as reduction in liver steatosis at 40 mg/kg, po administered via gavage for 5 weeks by Masson's trichrome staining based analysis; format: functional, organism-based
# [2] = Toxicity against female ICR mouse assessed as effect on plasma AST level at 200 to 500 mg/kg administered via gavage for 12 days; format: organism-based; conditions: in vivo, po, 288 h, dose 200-500 mg/kg, time 12 day
# [3] = Toxicity against female ICR mouse assessed as effect on liver weight at 200 to 500 mg/kg administered via gavage for 12 days; format: organism-based; conditions: in vivo, po, 288 h, dose 200-500 mg/kg, time 12 day
# [4] = MRT (0 to infinity) in ICR mouse at 10 mg/kg, po by LC-MS/MS analysis; format: ADME, organism-based; conditions: in vivo
# [5] = biological target: T1, Interferon-inducible protein AIM2 (Mus musculus) (UniProt Q91VJ1); assay: Inhibition of AIM2 inflammasome in mouse J774.A1 cells assessed as inhibition of IL-1 beta secretion at 30 nM primed with LPS for 4.5 hrs followed by incubation with compound for 24 hrs and later stimulated with poly (dA:dT) for 6 hrs by immunoblot analysis; format: cell-based; conditions: time 30.0 hrs
# T1 sequence (whole entry): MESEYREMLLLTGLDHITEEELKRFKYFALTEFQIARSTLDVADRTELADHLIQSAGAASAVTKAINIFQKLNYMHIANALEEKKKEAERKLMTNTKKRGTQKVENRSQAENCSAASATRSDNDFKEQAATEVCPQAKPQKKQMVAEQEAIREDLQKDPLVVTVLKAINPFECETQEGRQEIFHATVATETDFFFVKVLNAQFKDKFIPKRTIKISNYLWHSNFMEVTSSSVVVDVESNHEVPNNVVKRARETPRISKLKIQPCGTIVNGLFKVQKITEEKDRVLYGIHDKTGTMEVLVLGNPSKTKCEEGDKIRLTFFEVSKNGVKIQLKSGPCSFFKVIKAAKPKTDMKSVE
# [6] = tested on: Mus musculus; assay: Antiinflammatory activity against MCD diet-induced NASH C57BL/6 mouse model assessed as improvement in liver morphology at 40 mg/kg, po administered via gavage for 5 weeks by Masson's trichrome staining based analysis; format: functional, organism-based
# [7] = Half life in ICR mouse at 10 mg/kg, po by LC-MS/MS analysis; format: ADME, organism-based; conditions: in vivo
# [8] = Toxicity against male ICR mouse assessed as effect on spleen weight at 200 to 500 mg/kg administered via gavage for 12 days; format: organism-based; conditions: in vivo, po, 288 h, dose 200-500 mg/kg, time 12 day
# [9] = Toxicity against male ICR mouse assessed as effect on heart weight at 200 to 500 mg/kg administered via gavage for 12 days; format: organism-based; conditions: in vivo, po, 288 h, dose 200-500 mg/kg, time 12 day
# [10] = tested on: Mus musculus; assay: Antiinflammatory activity against MCD diet-induced NASH C57BL/6 mouse model assessed as reduction in liver steatosis at 40 mg/kg, po administered via gavage for 5 weeks by H and E staining based analysis; format: functional, organism-based
# [11] = Drug uptake in Sprague-Dawley rat kidney at 50 mg/kg, po measured for 24 hrs by LC-MS/MS analysis; format: ADME, organism-based; conditions: in vivo
# [12] = Apparent volume of distribution in ICR mouse at 5 mg/kg, iv by LC-MS/MS analysis; format: ADME, organism-based; conditions: in vivo, read-out: Vz
# [13] = Toxicity against male ICR mouse assessed as effect on ratio of plasma AST to ALT level at 200 to 500 mg/kg administered via gavage for 12 days; format: organism-based; conditions: in vivo, po, 288 h, dose 200-500 mg/kg, time 12 day
# [14] = tested on: Mus musculus; assay: Antiinflammatory activity against LPS-induced lethal septic shock C57BL/6 mouse model assessed as increase in animal's survival rate at 40 mg/kg, ip administered for 1 hr prior to LPS challenge and measured for 72 hrs; format: functional; conditions: time 73 hrs
# [15] = Cmax in ICR mouse at 10 mg/kg, po by LC-MS/MS analysis; format: ADME, organism-based; parameters: dose 10 mg/kg, route po; conditions: in vivo
# [16] = biological target: NLR family CARD domain-containing protein 4 (Mus musculus) (UniProt Q3UP24); assay: Inhibition of NLRC4 inflammasome in mouse J774.A1 cells assessed as inhibition of IL-1 beta secretion at 30 nM primed with LPS for 4.5 hrs followed by incubation with compound for 24 hrs and later stimulated with flagellin for 24 hrs by immunoblot analysis; format: cell-based; conditions: time 48.0 hrs
# Chain of NLR family CARD domain-containing protein 4 (Mus musculus) (Q3UP24 whole entry, the tested form may be a part): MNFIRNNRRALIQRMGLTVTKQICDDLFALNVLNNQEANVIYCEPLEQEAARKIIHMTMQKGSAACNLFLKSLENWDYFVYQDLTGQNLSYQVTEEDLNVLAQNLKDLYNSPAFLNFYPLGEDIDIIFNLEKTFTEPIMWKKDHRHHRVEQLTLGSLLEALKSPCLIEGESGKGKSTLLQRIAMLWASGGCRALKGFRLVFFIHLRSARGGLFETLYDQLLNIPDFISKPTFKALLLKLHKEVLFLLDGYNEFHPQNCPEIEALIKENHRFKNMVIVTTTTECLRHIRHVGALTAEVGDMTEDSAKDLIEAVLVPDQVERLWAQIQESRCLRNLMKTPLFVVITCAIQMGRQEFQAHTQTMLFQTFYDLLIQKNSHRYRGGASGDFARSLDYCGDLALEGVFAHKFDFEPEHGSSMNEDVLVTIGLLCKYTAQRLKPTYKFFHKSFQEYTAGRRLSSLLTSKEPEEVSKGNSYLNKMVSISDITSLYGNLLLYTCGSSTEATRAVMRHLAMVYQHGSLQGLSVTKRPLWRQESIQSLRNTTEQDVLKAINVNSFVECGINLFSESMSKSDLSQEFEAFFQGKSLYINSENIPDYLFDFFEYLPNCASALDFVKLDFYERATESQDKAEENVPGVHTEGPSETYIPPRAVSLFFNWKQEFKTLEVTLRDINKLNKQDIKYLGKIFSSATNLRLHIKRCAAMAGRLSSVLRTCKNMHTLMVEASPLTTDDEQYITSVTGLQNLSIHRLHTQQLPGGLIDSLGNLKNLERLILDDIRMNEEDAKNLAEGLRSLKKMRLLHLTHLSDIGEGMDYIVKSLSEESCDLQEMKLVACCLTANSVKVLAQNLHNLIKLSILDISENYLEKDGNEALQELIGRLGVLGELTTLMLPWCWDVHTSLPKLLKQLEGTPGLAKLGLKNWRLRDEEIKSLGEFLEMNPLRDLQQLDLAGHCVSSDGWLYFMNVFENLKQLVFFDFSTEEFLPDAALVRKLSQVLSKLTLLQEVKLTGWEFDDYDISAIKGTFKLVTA
# [17] = Toxicity against male ICR mouse assessed as effect on body weight at 200 to 500 mg/kg administered via gavage for 12 days; format: organism-based; conditions: in vivo, po, 288 h, dose 200-500 mg/kg, time 12 day
# [18] = tested on: THP-1; assay: Effect on ROS production in PMA-induced differentiated human THP-1 cells at 30 nM pretreated with compound for 24 hrs followed by stimulation with LPS for 4.5 hrs and ATP for 1 hr by MitoSOX dye based confocal microscopy; format: functional, cell-based; conditions: time 29.5 hrs
# [19] = tested on: Mus musculus; assay: Antiinflammatory activity against LPS-induced lethal septic shock C57BL/6 mouse model assessed as effect on TNF-alpha level at 40 mg/kg, ip administered for 1 hr prior to LPS challenge and measured after 2.5 hrs by ELISA; format: functional, organism-based; conditions: time 3.5 hrs
# [20] = tested on: Mus musculus; assay: Antiinflammatory activity against DSS-induced ulcerative colitis C57BL/6 mouse assessed as reduction in crypt necrosis in colon at 10 mg/kg, ip administered for 9 days and measured on day 10 by H and E staining based analysis; format: functional, organism-based; conditions: time 10.0 day
# [21] = Drug uptake in Sprague-Dawley rat stomach at 50 mg/kg, po measured for 24 hrs by LC-MS/MS analysis; format: ADME, organism-based; conditions: in vivo
# [22] = biological target: NACHT, LRR and PYD domains-containing protein 3 (Mus musculus) (UniProt Q8R4B8); assay: Inhibition of NLRP3 inflammasome in mouse J774.A1 cells assessed as inhibition of caspase-1 activation at 30 nM primed with LPS for 4.5 hrs followed by incubation with compound for 24 hrs and later stimulated with nigericin for 1 hr by immunoblot analysis; format: cell-based; conditions: time 25.0 hrs
# Chain of NACHT, LRR and PYD domains-containing protein 3 (Mus musculus) (Q8R4B8 whole entry, the tested form may be a part): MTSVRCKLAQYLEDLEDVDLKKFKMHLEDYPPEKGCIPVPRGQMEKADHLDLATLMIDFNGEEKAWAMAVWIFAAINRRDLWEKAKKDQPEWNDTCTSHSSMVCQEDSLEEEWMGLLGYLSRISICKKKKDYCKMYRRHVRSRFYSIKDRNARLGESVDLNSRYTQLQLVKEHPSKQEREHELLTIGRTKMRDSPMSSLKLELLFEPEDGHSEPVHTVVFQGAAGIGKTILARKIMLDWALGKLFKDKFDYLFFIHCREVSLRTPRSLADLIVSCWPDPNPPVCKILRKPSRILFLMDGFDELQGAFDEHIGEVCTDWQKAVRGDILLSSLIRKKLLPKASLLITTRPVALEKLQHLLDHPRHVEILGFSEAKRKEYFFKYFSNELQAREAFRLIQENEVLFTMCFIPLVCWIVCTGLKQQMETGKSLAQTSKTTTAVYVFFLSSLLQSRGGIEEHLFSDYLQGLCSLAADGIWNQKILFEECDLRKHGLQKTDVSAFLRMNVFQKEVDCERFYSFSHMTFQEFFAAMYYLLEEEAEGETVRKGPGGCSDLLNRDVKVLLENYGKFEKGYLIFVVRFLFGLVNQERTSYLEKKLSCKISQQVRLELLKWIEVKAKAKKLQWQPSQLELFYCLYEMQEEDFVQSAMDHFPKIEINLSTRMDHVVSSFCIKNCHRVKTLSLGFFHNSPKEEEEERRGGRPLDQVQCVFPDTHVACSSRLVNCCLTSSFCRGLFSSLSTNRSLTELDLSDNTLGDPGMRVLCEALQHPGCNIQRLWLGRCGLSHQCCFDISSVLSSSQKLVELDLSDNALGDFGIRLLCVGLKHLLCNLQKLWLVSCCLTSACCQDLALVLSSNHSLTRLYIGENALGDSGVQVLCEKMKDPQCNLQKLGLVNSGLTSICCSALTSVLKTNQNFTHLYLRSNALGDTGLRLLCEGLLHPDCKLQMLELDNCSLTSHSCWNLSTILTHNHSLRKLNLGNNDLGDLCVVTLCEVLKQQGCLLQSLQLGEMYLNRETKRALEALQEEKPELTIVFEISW
# [23] = Drug uptake in Sprague-Dawley rat jejunum at 50 mg/kg, po measured for 24 hrs by LC-MS/MS analysis; format: ADME, organism-based; conditions: in vivo
# [24] = Toxicity against female ICR mouse assessed as effect on brain weight at 200 to 500 mg/kg administered via gavage for 12 days; format: organism-based; conditions: in vivo, po, 288 h, dose 200-500 mg/kg, time 12 day
# [25] = Cmax in ICR mouse at 5 mg/kg, iv by LC-MS/MS analysis; format: ADME, organism-based; parameters: dose 5 mg/kg, route iv; conditions: in vivo
# [26] = biological target: NACHT, LRR and PYD domains-containing protein 3 (Mus musculus) (UniProt Q8R4B8); assay: Inhibition of NLRP3 inflammasome in mouse J774.A1 cells assessed as inhibition of IL-1 beta secretion at 30 nM primed with LPS for 4.5 hrs followed by incubation with compound for 24 hrs and later stimulated with nigericin for 1 hr by immunoblot analysis; format: cell-based; conditions: time 25.0 hrs
smiles,measurement,setting,value
CN(C)Cc1ccc(S(=O)(=O)NC(=O)Nc2c3c(cc4c2CCC4)CCC3)cc1,Activity,[1],Active
same,Activity,[2],Non-Toxic
same,Activity,[3],Non-Toxic
same,MRT inf,[4],4.79 h
same,inhibition,[5],inactive
same,Activity,[6],Active
same,half-life,[7],3.5 h
same,Activity,[8],Non-Toxic
same,Activity,[9],Non-Toxic
same,Activity,[10],Active
same,Drug uptake,[11],Active
same,Vd,[12],0.226 L/kg
same,Activity,[13],Non-Toxic
same,survival at 40 mg/kg,[14],70%
same,Cmax,[15],33900 ng/mL
same,inhibition,[16],inactive
same,Activity,[17],Non-Toxic
same,Activity,[18],inactive
same,Activity,[19],inactive
same,Activity,[20],Active
same,Drug uptake,[21],Active
same,inhibition,[22],Active
same,Drug uptake,[23],Active
same,Activity,[24],Non-Toxic
same,Cmax,[25],22600 ng/mL
same,inhibition,[26],Active
